Reference: patent US20070093520A1, “Method of treatment of diarrhea-predominant irritable bowel syndrome in a subject” (priority 2005, published 2007)

System: diarrhea-predominant IBS subjects
Assay: 3007 Study: open-label 52-week safety study, adverse events and withdrawals

Compound: Cc1nccn1C[C@H]1CCc2c(c3cccc4c3n2CCC4)C1=O [cilansetron, (R)-(−)-4,5,6,8,9,10-hexahydro-10-[(2-methyl-1H-imidazol-1-yl)methyl]-11H-pyrido-[3,2,1-jk]-carbazol-11-one]
- TEAE: Sexual Desire Disorders (P/C group): 1 (<1%) n (%)
- TEAE: Sick Sinus Syndrome (P/C group): 1 (<1%) n (%)
- TEAE: Sinus Arrhythmia (P/C group): 1 (<1%) n (%)
- TEAE: Sinus Congestion (P/C group): 3 (1%) n (%)
- TEAE: Skin Disorder NOS (P/C group): 1 (<1%) n (%)
- TEAE: Skin Injuries and Mechanical Dermatoses (P/C group): 2 (<1%) n (%)
- TEAE: Skin Lesion NOS (P/C group): 2 (<1%) n (%)
- TEAE: Skin Neoplasms Benign (P/C group): 1 (<1%) n (%)
- TEAE: Skin Neoplasms Malignant and Unspecified (Excl Melanoma) (P/C group): 4 (1%) n (%)
- TEAE: Skin Ulcer (P/C group): 1 (<1%) n (%)
- TEAE: Skin and Subcutaneous Tissue Disorders (P/C group): 25 (9%) n (%)
- TEAE: Skin and Subcutaneous Tissue Ulcerations (P/C group): 1 (<1%) n (%)
- TEAE: Social Circumstances (P/C group): 1 (<1%) n (%)
- TEAE: Soft Tissue Neoplasms Benign NEC (P/C group): 0 n (%)
- TEAE: Strabismus (P/C group): 1 (<1%) n (%)
- TEAE: Stress Incontinence (P/C group): 0 n (%)
- TEAE: Stress Symptoms (P/C group): 1 (<1%) n (%)
- TEAE: Structural and Other Bile Duct Disorders (P/C group): 1 (<1%) n (%)
- TEAE: Sugar Intolerance (Excl Glucose Intolerance) (P/C group): 1 (<1%) n (%)
- TEAE: Suicidal Ideation (P/C group): 1 (<1%) n (%)
- TEAE: Suicidal and Self-Injurious Behaviour (P/C group): 1 (<1%) n (%)
- TEAE: Supraventricular Arrhythmias (P/C group): 3 (1%) n (%)
- TEAE: Supraventricular Tachycardia (P/C group): 1 (<1%) n (%)
- TEAE: Surgical and Medical Procedures (P/C group): 1 (<1%) n (%)
- TEAE: Sweating Increased (P/C group): 2 (<1%) n (%)
- TEAE: Swelling Face (P/C group): 1 (<1%) n (%)
- TEAE: Tachycardia NOS (P/C group): 0 n (%)
- TEAE: Tenderness NOS (P/C group): 1 (<1%) n (%)
- TEAE: Thrombocytopenia (P/C group): 1 (<1%) n (%)
- TEAE: Thrombocytopenias (P/C group): 1 (<1%) n (%)
- TEAE: Thrombophlebitis Superficial (P/C group): 1 (<1%) n (%)
- TEAE: Thyroid Disorders NEC (P/C group): 0 n (%)
- TEAE: Thyroid Hypofunction Disorders (P/C group): 1 (<1%) n (%)
- TEAE: Thyroid Neoplasms (P/C group): 1 (<1%) n (%)
- TEAE: Thyroid Nodule (P/C group): 1 (<1%) n (%)
- TEAE: Tinnitus (P/C group): 0 n (%)
- TEAE: Total Fluid Volume Decreased (P/C group): 1 (<1%) n (%)
- TEAE: Tympanic Membrane Disorder NOS (P/C group): 1 (<1%) n (%)
- TEAE: Tympanic Membrane Disorders (Excl Infections) (P/C group): 1 (<1%) n (%)
- TEAE: Upper Respiratory Tract Signs and Symptoms (P/C group): 4 (1%) n (%)
- TEAE: Urinary Abnormalities (P/C group): 1 (<1%) n (%)
- TEAE: Urinary Frequency (P/C group): 1 (<1%) n (%)
- TEAE: Urinary Incontinence (P/C group): 0 n (%)
- TEAE: Urinary Retention (P/C group): 0 n (%)
- TEAE: Urinary Tract Lithiasis (Excl Renal) (P/C group): 0 n (%)
- TEAE: Urinary Tract Signs and Symptoms NEC (P/C group): 1 (<1%) n (%)
- TEAE: Urine Abnormal NOS (P/C group): 0 n (%)
- TEAE: Urticaria NOS (P/C group): 2 (<1%) n (%)
- TEAE: Urticarias (P/C group): 2 (<1%) n (%)
- TEAE: Uterine Disorders NEC* (P/C group): 0 n (%)
- TEAE: Uterine Fibroids* (P/C group): 0 n (%)
- TEAE: Uterine Neoplasms Benign* (P/C group): 0 n (%)
- TEAE: Uterine Neoplasms* (P/C group): 0 n (%)
- TEAE: Uterine Polyp NOS* (P/C group): 0 n (%)
- TEAE: Vaginal Cyst* (P/C group): 0 n (%)
- TEAE: Vaginal Lesion* (P/C group): 0 n (%)
- TEAE: Varicose Vein Ruptured (P/C group): 0 n (%)
- TEAE: Varicose Veins Non-Site Specific (P/C group): 0 n (%)
- TEAE: Vascular Disorders (P/C group): 8 (3%) n (%)
- TEAE: Vascular Hypertensive Disorders NEC (P/C group): 7 (3%) n (%)
- TEAE: Vascular Hypotensive Disorders (P/C group): 1 (<1%) n (%)
- TEAE: Ventricular Arrhythmias and Cardiac Arrest (P/C group): 1 (<1%) n (%)
- TEAE: Ventricular Extrasystoles (P/C group): 0 n (%)
- TEAE: Vertigo (P/C group): 1 (<1%) n (%)
- TEAE: Visual Acuity Reduced (P/C group): 1 (<1%) n (%)
- TEAE: Vitreous Disorder NOS (P/C group): 1 (<1%) n (%)
- TEAE: Vulvovaginal Cysts and Neoplasms* (P/C group): 0 n (%)
- TEAE: Vulvovaginal Dryness* (P/C group): 2 (1%) n (%)
- TEAE: Vulvovaginal Signs and Symptoms* (P/C group): 2 (1%) n (%)
- TEAE: Wheezing (P/C group): 0 n (%)
- TEAE: Abdominal Discomfort (Placebo/Cilansetron 2 mg): 0 n (%)
- TEAE: Abdominal Distension (Placebo/Cilansetron 2 mg): 6 (2%) n (%)
- TEAE: Abdominal Pain Aggravated (Placebo/Cilansetron 2 mg): 0 n (%)
- TEAE: Abdominal Pain Lower (Placebo/Cilansetron 2 mg): 6 (2%) n (%)
- TEAE: Abdominal Pain NOS (Placebo/Cilansetron 2 mg): 21 (8%) n (%)
- TEAE: Abdominal Pain Upper (Placebo/Cilansetron 2 mg): 4 (1%) n (%)
- TEAE: Abdominal Rebound Tenderness (Placebo/Cilansetron 2 mg): 0 n (%)
- TEAE: Abdominal Tenderness (Placebo/Cilansetron 2 mg): 4 (1%) n (%)
- TEAE: Abnormal Reflexes (Placebo/Cilansetron 2 mg): 0 n (%)
- TEAE: Alanine Aminotransferase Increased (Placebo/Cilansetron 2 mg): 6 (2%) n (%)
- TEAE: Anal and Rectal Disorders NEC (Placebo/Cilansetron 2 mg): 1 (<1%) n (%)
- TEAE: Anal and Rectal Pains (Placebo/Cilansetron 2 mg): 4 (1%) n (%)
- TEAE: Anal and Rectal Signs and Symptoms (Placebo/Cilansetron 2 mg): 3 (1%) n (%)
- TEAE: Animal Bite (Placebo/Cilansetron 2 mg): 1 (<1%) n (%)
- TEAE: Appendicitis (Placebo/Cilansetron 2 mg): 0 n (%)
- TEAE: Arthralgia (Placebo/Cilansetron 2 mg): 3 (1%) n (%)
- TEAE: Arthritis NOS (Placebo/Cilansetron 2 mg): 0 n (%)
- TEAE: Arthritis NOS Aggravated (Placebo/Cilansetron 2 mg): 0 n (%)
- TEAE: Arthropathies NEC (Placebo/Cilansetron 2 mg): 1 (<1%) n (%)
- TEAE: Arthropod Bite (Placebo/Cilansetron 2 mg): 1 (<1%) n (%)
- TEAE: Arthropod Sting (Placebo/Cilansetron 2 mg): 1 (<1%) n (%)
- TEAE: Aspartate Aminotransferase Increased (Placebo/Cilansetron 2 mg): 3 (1%) n (%)
- TEAE: Back Injury NOS (Placebo/Cilansetron 2 mg): 0 n (%)
- TEAE: Back Pain (Placebo/Cilansetron 2 mg): 6 (2%) n (%)
- TEAE: Back Pain Aggravated (Placebo/Cilansetron 2 mg): 1 (<1%) n (%)
- TEAE: Bacteria Identification and Serology (Excl Mycobacteria) (Placebo/Cilansetron 2 mg): 0 n (%)
- TEAE: Bilirubin Urine (Placebo/Cilansetron 2 mg): 0 n (%)
- TEAE: Bladder Infection NOS (Placebo/Cilansetron 2 mg): 1 (<1%) n (%)
- TEAE: Blood Alkaline Phosphatase NOS Increased (Placebo/Cilansetron 2 mg): 1 (<1%) n (%)
- TEAE: Blood Bilirubin Increased (Placebo/Cilansetron 2 mg): 2 (<1%) n (%)
- TEAE: Blood Cholesterol Increased (Placebo/Cilansetron 2 mg): 8 (3%) n (%)
- TEAE: Blood Creatine Phosphokinase Increased (Placebo/Cilansetron 2 mg): 8 (3%) n (%)
- TEAE: Blood Creatine Phosphokinase Mb Increased (Placebo/Cilansetron 2 mg): 0 n (%)
- TEAE: Blood Creatinine Increased (Placebo/Cilansetron 2 mg): 3 (1%) n (%)
- TEAE: Blood Glucose Increased (Placebo/Cilansetron 2 mg): 0 n (%)
- TEAE: Blood Potassium Increased (Placebo/Cilansetron 2 mg): 0 n (%)
- TEAE: Blood Pressure Increased (Placebo/Cilansetron 2 mg): 2 (<1%) n (%)
- TEAE: Blood Sodium Increased (Placebo/Cilansetron 2 mg): 0 n (%)
- TEAE: Blood Triglycerides Increased (Placebo/Cilansetron 2 mg): 4 (1%) n (%)
- TEAE: Blood Uric Acid Increased (Placebo/Cilansetron 2 mg): 0 n (%)
- TEAE: Blood Urine Present (Placebo/Cilansetron 2 mg): 4 (1%) n (%)
- TEAE: Blood in Stool (Placebo/Cilansetron 2 mg): 4 (1%) n (%)
- TEAE: Bone Density Decreased (Placebo/Cilansetron 2 mg): 1 (<1%) n (%)
- TEAE: Bone Disorder NOS (Placebo/Cilansetron 2 mg): 0 n (%)
- TEAE: Bone Disorders NEC (Placebo/Cilansetron 2 mg): 2 (<1%) n (%)
- TEAE: Bone Injury (Placebo/Cilansetron 2 mg): 0 n (%)
- TEAE: Bone Spur (Placebo/Cilansetron 2 mg): 1 (<1%) n (%)
- TEAE: Bronchitis Acute NOS (Placebo/Cilansetron 2 mg): 1 (<1%) n (%)
- TEAE: Bronchitis NOS (Placebo/Cilansetron 2 mg): 5 (2%) n (%)
- TEAE: Bronchopneumonia NOS (Placebo/Cilansetron 2 mg): 1 (<1%) n (%)
- TEAE: Bunion (Placebo/Cilansetron 2 mg): 0 n (%)
- TEAE: Bursal Disorders (Placebo/Cilansetron 2 mg): 3 (1%) n (%)
- TEAE: Bursitis (Placebo/Cilansetron 2 mg): 2 (<1%) n (%)
- TEAE: Candida Infections (Placebo/Cilansetron 2 mg): 2 (<1%) n (%)
- TEAE: Candidal Infection NOS (Placebo/Cilansetron 2 mg): 1 (<1%) n (%)
- TEAE: Carbohydrate Tolerance Analyses (Incl Diabetes) (Placebo/Cilansetron 2 mg): 0 n (%)
- TEAE: Cardiac Auscultatory Investigations (Placebo/Cilansetron 2 mg): 0 n (%)
- TEAE: Cardiac Murmur NOS (Placebo/Cilansetron 2 mg): 0 n (%)
- TEAE: Carotid Bruit (Placebo/Cilansetron 2 mg): 1 (<1%) n (%)
- TEAE: Carpal Tunnel Syndrome (Placebo/Cilansetron 2 mg): 1 (<1%) n (%)
- TEAE: Cartilage Disorder NOS (Placebo/Cilansetron 2 mg): 0 n (%)
- TEAE: Cartilage Disorders (Placebo/Cilansetron 2 mg): 0 n (%)
- TEAE: Cellulitis (Placebo/Cilansetron 2 mg): 1 (<1%) n (%)
- TEAE: Cervical Spasm (Placebo/Cilansetron 2 mg): 0 n (%)
- TEAE: Change in Bowel Habit NOS (Placebo/Cilansetron 2 mg): 1 (<1%) n (%)
- TEAE: Chapped Lips (Placebo/Cilansetron 2 mg): 1 (<1%) n (%)
- TEAE: Chest Wall Pain (Placebo/Cilansetron 2 mg): 2 (<1%) n (%)
- TEAE: Cholesterol Analyses (Placebo/Cilansetron 2 mg): 8 (3%) n (%)
- TEAE: Colitis (Excl Infective) (Placebo/Cilansetron 2 mg): 1 (<1%) n (%)
- TEAE: Colitis Ischaemic (Placebo/Cilansetron 2 mg): 1 (<1%) n (%)
- TEAE: Colonic Polyp (Placebo/Cilansetron 2 mg): 0 n (%)
- TEAE: Connective Tissue Disorders (Excl Le) (Placebo/Cilansetron 2 mg): 2 (<1%) n (%)
- TEAE: Constipation (Placebo/Cilansetron 2 mg): 62 (22%) n (%)
- TEAE: Cystitis NOS (Placebo/Cilansetron 2 mg): 0 n (%)
- TEAE: Dental Disorders NEC (Placebo/Cilansetron 2 mg): 0 n (%)
- TEAE: Dental Infections - Pathogen Class Unspecified (Placebo/Cilansetron 2 mg): 2 (<1%) n (%)
- TEAE: Dental Pain and Sensation Disorders (Placebo/Cilansetron 2 mg): 1 (<1%) n (%)
- TEAE: Diaphragmatic Hernias (Placebo/Cilansetron 2 mg): 0 n (%)
- TEAE: Diarrhoea (Excl Infective) (Placebo/Cilansetron 2 mg): 15 (5%) n (%)
- TEAE: Diarrhoea Aggravated (Placebo/Cilansetron 2 mg): 2 (<1%) n (%)
- TEAE: Diarrhoea Haemorrhagic (Placebo/Cilansetron 2 mg): 2 (<1%) n (%)
- TEAE: Diarrhoea NOS (Placebo/Cilansetron 2 mg): 9 (3%) n (%)
- TEAE: Disturbances in Consciousness NEC (Placebo/Cilansetron 2 mg): 1 (<1%) n (%)
- TEAE: Diverticulitis NOS (Placebo/Cilansetron 2 mg): 1 (<1%) n (%)
- TEAE: Diverticulum Inflammations (Placebo/Cilansetron 2 mg): 1 (<1%) n (%)
- TEAE: Dizziness (Placebo/Cilansetron 2 mg): 2 (<1%) n (%)
- TEAE: Dry Mouth (Placebo/Cilansetron 2 mg): 1 (<1%) n (%)
- TEAE: Dysarthria (Placebo/Cilansetron 2 mg): 1 (<1%) n (%)
- TEAE: Dyskinesias and Movement Disorders NEC (Placebo/Cilansetron 2 mg): 1 (<1%) n (%)
- TEAE: Dyspepsia (Placebo/Cilansetron 2 mg): 7 (3%) n (%)
- TEAE: Dyspepsia Aggravated (Placebo/Cilansetron 2 mg): 0 n (%)
- TEAE: Dyspeptic Signs and Symptoms (Placebo/Cilansetron 2 mg): 7 (3%) n (%)
- TEAE: ECG Investigations (Placebo/Cilansetron 2 mg): 1 (<1%) n (%)
- TEAE: Ear Infection NOS (Placebo/Cilansetron 2 mg): 2 (<1%) n (%)
- TEAE: Ear Infections (Placebo/Cilansetron 2 mg): 3 (1%) n (%)
- TEAE: Electrocardiogram Qrs Complex Abnormal (Placebo/Cilansetron 2 mg): 0 n (%)
- TEAE: Electrocardiogram T Wave Inversion (Placebo/Cilansetron 2 mg): 1 (<1%) n (%)
- TEAE: Enteritis (Placebo/Cilansetron 2 mg): 1 (<1%) n (%)
- TEAE: Epigastric Discomfort (Placebo/Cilansetron 2 mg): 1 (<1%) n (%)
